Measured values as given in patent US20140194528A1, “USAGE OF SODIUM HOUTTUYFONATE ON INHIBITING IDIOPATHIC PULMONARY FIBROSIS AND BLEOMYCIN INDUCED PULMONARY FIBROSIS” (Hong Kong Baptist University, priority 2013, published 2014).

Tests used:
[1] = system: mice lung; experiment: Small-scale preliminary experiments with two dosages of BLM in mice; type: in vivo
Experimental: Two different dosages of BLM (2.5 mg/kg, 5mg/kg) were given to 10 mice (5 mice for each group) for small-scale preliminary experiments. On the 7th and 14th day, the mice were anesthetized with pentobarbital sodium (50 mg/kg) intraperitoneally. […]. […] Therefore, 5 mg of BLM in 2.5 ml sterile saline/body weight (kg) was used to generate BLM induced pulmonary fibrosis mice model. In the BLM group, mice received a single dose of BLM. After the instillation of saline or BLM, the lung/body weight ratio were obtained on the 7th, 14th, and 28th day. […] Both PA and SH reduced the lung/body weight ratio on the 14th and 28th day in BLM mice (*p<0.05, **p<0.01). Meanwhile, there was no significant difference in body weight among all groups.

[2] = system: BLM induced pulmonary fibrosis mice model; experiment: Bleomycin (BLM) induced pulmonary fibrosis mice model, treatment with SH or PA; type: in vivo, Kunming mice; conditions: for lung inflammatory cell infiltration and collagen deposition (H&E staining): 7th, SH both high (90 mg/kg) and low (45 mg/kg) concentrations (FIG. 2); for lung inflammatory cell infiltration and collagen deposition (H&E staining) / lung/body weight ratio: 14th and 28th day; for lung/body weight ratio: SH oral once a day, p<0.05 / p<0.01 vs BLM group (FIG. 1); for hydroxyproline production in lung tissue: 28th day samples, p<0.05 / p<0.01 vs BLM group (FIG. 3C); for deposition of collagens (Sirius Red staining, polarized light): all sample collection time points (7th, 14th, 28th day), SH 90 and 45 mg/kg (FIG. 3A); for collagen I/III ratio: all time points (FIG. 3B)
Experimental: Kunming mice were obtained from Shanghai Experimental Animal Center, Chinese Academy of Sciences. The animals were housed in stainless steel metabolite cages and observed under a 12 hours light-12 hours dark cycle in a well-ventilated room at 23° C±2° C. They were fed with standard pellet food and tap water ad libitum. The study was approved by the Animal Care and Use Committee of Shanghai University of Traditional Chinese Medicine, and was performed in accordance with the National Institute of Health guidelines for the care and handling of animals.
One hundred and twenty mice (male, 8 weeks old, 18-22 g) were randomly divided into the following 5 groups: sham control operation group (Control); BLM treatment group (BLM); prednisone acetate treatment group (BLM+PA); high concentration SH treatment group (BLM+SH High); and low concentration SH treatment group (BLM+SH Low). In the control group, mice received 1 ml/kg 0.9% sterile saline intratracheally under pentobarbital sodium anesthesia. In the BLM group, mice received a single dose of BLM intratracheally (5 mg in 1 ml sterile saline/body weight (kg)). The control and BLM groups received saline (oral, 5 ml/body weight (kg)) once a day for 4 weeks after BLM injection. We selected the doses of SH based on our previous report and small-scale preliminary experiments. We employed two different administration concentrations. SH was administered orally once a day to both the high (90 mg/kg) and low (45 mg/kg) concentration SH groups. On the 7th, 14th or 28th day, the mice were anesthetized with pentobarbital sodium (50 mg/kg) intraperitoneally.
The lungs were immersed in buffered formalin (10%) for 48 h, then embedded in paraffin and sliced (5 μm) and stained with H&E, or Sirius red. Each sample slice was photographed (x200 magnification) under the microscope (Olympus BX51, 167 Japan). All photos were analyzed with the image-Pro Plus 6.3 analyzing software (Media Cybernetics, Bethesda, Md. USA) by computer. Type I and type III collagen accumulation in the interstitial space of the lung was assessed by polarized light microscopy. Type I or type III collagen volume fraction (CVF) was also determined with Image-Pro 6.3 analyzing software.
All values were expressed as mean±standard deviation (SD). Statistical analysis was performed by one-way analysis of variance for multiple comparisons, followed by Student-Newman-Keuls test to evaluate the difference between two groups. Values of p<0.05 were considered statistically significant for all analyses.

Compound	pathological change of lung ([1]; BLM 2.5 mg/kg, 7th and 14th day (data not shown))	death ([1]; BLM 5 mg/kg)	lung tissue histological examination ([1]; BLM 5 mg/kg, 7th and 14th day)	lung inflammatory cell infiltration and collagen deposition (H&E staining) ([2]; BLM mice)	lung/body weight ratio ([2]; BLM mice)	hydroxyproline production in lung tissue ([2]; BLM mice)	deposition of collagens (Sirius Red staining, polarized light) ([2]; BLM mice)	collagen I/III ratio ([2]; BLM+PH group)	cytokine (IL-1β, IL-6 and TNF-α) production in lung tissues ([2]; BLM mice)	body weight ([2]; BLM mice, higher dose of SH)	collagen I/III ratio ([2]; BLM+SH High (90 mg/kg))	collagen I/III ratio ([2]; BLM+SH Low (45 mg/kg))
Bleomycin [BLM]	not significant	no death	showed the fibrotic morphology									
CC(=O)OCC(=O)[C@@]1(O)CC[C@H]2[C@@H]3CCC4=CC(=O)C=C[C@]4(C)[C@H]3C(=O)C[C@@]21C [PA, prednisone acetate]				reduced	reduced	suppressed	reduced	low collagen I/III ratios				
CCCCCCCCCC(=O)CC(O)S(=O)(=O)O (stereo not shown) [SH, Sodium Houttuyfonate]				reduced	reduced	suppressed	reduced		inhibit	without adversely affecting the body weight	low collagen I/III ratios	low collagen I/III ratios
